Assay results published in PubChem BioAssay AID179 (DTP/NCI, 2004).
Activity calls are given as the source filed them.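 The calls were made as follows: active = compounds giving half or more protection of infected cells from virus-caused growth loss, again on retest; inactive = the rest.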

Tested on: CEM cells HIV-1 protection, formazan growth assay
Assay: NCI AIDS Antiviral Assay
Conditions: for IC50: measured here: growth of uninfected CEM cells
Procedure, shortened: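 Soluble formazan readout of cell growth; CEM cells ± HIV-1; 5 drug concs. ≥50% protection → retest; ≥50% again = moderately active; reproducible 100% = confirmed active.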

| Structure (SMILES) | EC50 [µM] | IC50 [µM] | outcome |
| --- | --- | --- | --- |
| NC1Cc2ccccc2OC1=O (stereo not drawn) | > 200 | > 200 |  |
| Cc1c(C(N)=C(C#N)C#N)c(=N)oc2ccccc12 | > 200 | 36.3 |  |
| CC(=O)NNc1nc(C)c(C(/C=C/c2ccccc2O)=N/N=C(N)N)s1 | > 89.1 | > 89.1 |  |
| O=C1NCN(c2ccccc2)C12CCN(Cc1ccccc1)CC2 | > 200 | > 200 |  |
| CC1=CC(=O)NCCN1C | 138 | 1780 |  |
| CC(C)=CC[C@]12CCN(C)[C@H]1N(S(=O)(=O)c1ccccc1)c1ccccc12 | > 200 | 135 |  |
| C[N+](C)(C)CCCS(=O)(=O)[O-] | > 200 | > 200 |  |
| O=C1c2ccccc2-c2c(Br)c3ccccc3c(=O)n21 | > 100 | 69.2 |  |
| COc1nc2c(c(O)c(C)c(=O)n2OC2OCC(OC(C)=O)C(OC(C)=O)C2OC(C)=O)c(=O)n1C (stereo not drawn) | > 132 | > 132 |  |
| C=CC1(c2ccc(Cl)c(Cl)c2)OCCO1 | > 200 | 166 |  |
| O=[N+]([O-])c1cc(Cc2cc(Cl)c(O)c([N+](=O)[O-])c2)cc(Cl)c1O | > 200 | 35.5 |  |
| Cc1cccc(CC(=O)c2ccccc2)n1 | > 200 | 53.7 |  |
| O=C1CCCCC/C1=C\c1ccc([N+](=O)[O-])cc1 | > 200 | 25.7 |  |
| CN(C)NC(=S)NC12CC3CC(CC(C3)C1)C2 |  |  | inactive |
| COC(=O)c1cc(=O)nc(N/N=C/c2ccccc2O)s1 | > 85.1 | 57.5 |  |
| CCOC(=O)C(=CNC(=S)Nc1ccccc1)C(=O)OCC | > 200 | > 200 |  |

| Structure (SMILES) | EC50 [µM] | IC50 [µM] | outcome |
| --- | --- | --- | --- |
| C=C1C(=O)O[C@H]2[C@H]3O[C@@H](C[C@@H]12)[C@@]1(C)CC[C@H](O1)[C@H](C)CCC[C@H]3C | > 20 | 1.07 |  |
| C/C(CCN(C)C)=N/O |  |  | inactive |
| CCOC(=O)/C=C1\c2ccccc2C(=O)N1CC(=O)OCC |  |  | inactive |
| O=c1c2cc(Br)ccc2oc2ccc(Br)cc12 |  |  | inactive |
| CCOC(=O)CNC(=O)C(CSSCC(NC(=O)OCc1ccccc1)C(=O)O)NC(=O)OCc1ccccc1 (stereo not drawn) | > 200 | > 200 |  |
| Cc1ccc(N=Nc2c(S(=O)(=O)O)cc3cc(NC(=O)Nc4ccc5c(O)c(N=Nc6ccc7cc(S(=O)(=O)O)ccc7c6)c(S(=O)(=O)O)cc5c4)ccc3c2O)cc1 |  |  | active |
| CC1(C)N=C(/C(Cl)=[N+](/[O-])C(=O)c2ccc(Cl)cc2)C(C)(C)N1O | > 100 | 8.91 |  |
| c1ccc(C2=C(c3ccccc3)Sc3nnc(CCCCCCCCc4nnc5n4NC(c4ccccc4)=C(c4ccccc4)S5)n3N2)cc1 | > 200 | 89.1 |  |
| O=C(CCCn1ccnc1[N+](=O)[O-])NCCn1cnc([N+](=O)[O-])c1 | > 200 | > 200 |  |
| c1ccc([P+](Cc2ccc3c(c2)OCO3)(c2ccccc2)c2ccccc2)cc1 | > 200 | 3.39 |  |
| O=C(O)CN(c1ccc(F)cc1)S(=O)(=O)c1ccccc1 |  |  | inactive |
| COc1ccc(C(Nc2ccc([N+](=O)[O-])cc2)P(=O)(c2ccccc2)c2ccccc2)cc1 (stereo not drawn) | > 200 | 10.5 |  |
| NCCC1([N+](=O)[O-])CCNCC1 | > 200 | > 200 |  |
| O=S(=O)(ON=C1C=CC(=NOS(=O)(=O)c2ccccc2)C=C1)c1ccccc1 | > 200 | 1.02 |  |
| C=CCSCC1Nc2cc(Cl)c(S(N)(=O)=O)cc2S(=O)(=O)N1C (stereo not drawn) | > 234 | 91.2 |  |
| CCOC(=O)c1[nH]n(-c2ccccc2)c(=O)c1C=NC(=S)c1cccnc1 | > 200 | 89.1 |  |
